Reference: patent EP2061765B1, “Serine-threonine protein kinase and PARP modulators” (Senhwa Biosciences, Inc., priority 2006, dated 2008)

Columns and labels:
Assay in all cases: Cell proliferation assay (Alamar Blue)
Assay type in all cases: cell-based
HCT-116 = conditions: Homo sapiens, 96 h, HCT-116 cells, four days
MiaPaCa = conditions: Homo sapiens, MIA PaCa-2, 96 h, MiaPaCa cells, four days
Experimental: (§1) A representative cell-proliferation assay protocol using Alamar Blue dye (stored at 4°C, use 20ul per well) is described hereafter. 96-well plate setup and compound treatment • a. Split and trypsinize cells. • b. Count cells using hemocytometer. • c. Plate 4,000-5,000 cells per well in 100 µl of medium and seed into a 96-well plate according to the following plate layout. Add cell culture medium only to wells B10 to B12. Wells B1 to B9 have cells but no compound added. [formula] [formula] • d. Add 100 µl of 2X drug dilution to each well in a concentration shown in the plate layout above. At the same time, add 100 µl of media into the control wells (wells B10 to B12). Total volume is 200 µl/well. • e. Incubate four (4) days at 37°C, 5% CO2 in a humidified incubator. • f. Add 20µl Alamar Blue reagent to each well. • g. Incubate for four (4) hours at 37°C, 5% CO2 in a humidified incubator. • h. Record fluorescence at an excitation wavelength of 544nm and emission wavelength of 590nm using a microplate reader.
(§2) In the assays, cells are cultured with a test compound for approximately four days, the dye then is added to the cells and fluorescence of […] dye is detected after approximately four hours. Different types of cells can be utilized in the assays (e.g., HCT-116 human colorectal carcinoma cells, PC-3 human prostatic cancer cells and MiaPaca human pancreatic carcinoma cells). Anti-proliferative effects of representative compounds are provided hereafter.

Jurkat = conditions: Homo sapiens, 96 h, Jurkat cells, four days
Experimental: as §1, §2

| Structure (SMILES) | IC50 (HCT-116) | IC50 (MiaPaCa) | IC50 (Jurkat) |
| --- | --- | --- | --- |
| CC(C)Nc1ncc2c(n1)c(Nc1cccc(Cl)c1)nc1cc(C(=O)O)ccc12 [drawing 340] | > 10 µM | 5.45 µM | 18.4 µM |
| O=C(O)c1ccc2c(c1)nc(Nc1cccc(C(F)(F)F)c1)c1nc(NC3CC3)ncc12 [drawing 341] |  | 0.65 µM | 3.13 µM |
| CCNc1ncc2c(n1)c(Nc1cccc(Cl)c1)nc1cc(C(=O)O)ccc12 [drawing 342] |  | 0.92 µM | 3.06 µM |
| CNc1ncc2c(n1)c(Nc1ccc(F)c(Cl)c1)nc1cc(C(=O)O)ccc12 [drawing 343] | > 10 µM | 0.65 µM | 1.24 µM |
| O=C(O)c1ccc2c(c1)nc(Nc1ccc(F)c(Cl)c1)c1nc(NC3CC3)ncc12 [drawing 345] | > 10 µM | 0.37 µM | 1.54 µM |
| COCCNc1ncc2c(n1)c(Nc1ccc(F)c(Cl)c1)nc1cc(C(=O)O)ccc12 [drawing 346] | > 10 µM | 1.08 µM | 0.41 µM |
| C#Cc1cccc(Nc2nc3cc(C(=O)O)ccc3c3cnc(NCCOCC)nc23)c1 [drawing 347] | > 10 µM | 0.62 µM | 1.13 µM |
| C#Cc1cccc(Nc2nc3cc(C(=O)O)ccc3c3cnc(NCCCOCC)nc23)c1 [drawing 348] | > 10 µM | 0.87 µM | 0.39 µM |
| C#Cc1cccc(Nc2nc3cc(C(=O)O)ccc3c3cnc(NCCCOC(C)C)nc23)c1 [drawing 349] | > 10 µM | 2.01 µM | 2.37 µM |
| O=C(O)c1ccc2c(c1)nc(Nc1cccc(Cl)c1)c1nc(O)ncc12 [drawing 350] | > 10 µM | > 50 µM | > 50 µM |
| Cc1ncc2c(n1)c(Nc1cccc(Cl)c1)nc1cc(C(=O)O)ccc12 [drawing 351] | > 10 µM | 5.39 µM | 4.95 µM |
| C#Cc1cccc(Nc2nc3cc(C(=O)OC)ccc3c3cnc(NOC)nc23)c1 [drawing 352] | > 10 µM | > 50 µM | 27 µM |
| COC(=O)c1ccc2c(c1)nc(Nc1cccc(Cl)c1)c1nc(NCCC(N)=O)ncc12 [drawing 353] | > 10 µM | 17.1 µM | 4.41 µM |
| NC(=O)CCNc1ncc2c(n1)c(Nc1cccc(Cl)c1)nc1cc(C(=O)O)ccc12 [drawing 354] | > 10 µM | > 50 µM | 37.7 µM |
| O=C(O)CCNc1ncc2c(n1)c(Nc1cccc(Cl)c1)nc1cc(C(=O)O)ccc12 [drawing 355] | > 10 µM | > 50 µM | > 50 µM |
| Cc1cccc(Nc2nc3cc(C(=O)O)ccc3c3cnccc23)c1 [drawing 356] | > 10 µM | 8.33 µM | 3.45 µM |
| O=C(O)c1ccc2c(c1)nc(Nc1cc(F)cc(F)c1)c1nc(NC3CC3)ncc12 [drawing 358] | > 10 µM | 2.32 µM | 6.02 µM |
| O=C(O)c1ccc2c(c1)nc(Nc1cccc(F)c1)c1nc(NC3CC3)ncc12 [drawing 359] | > 10 µM | 3.27 µM | 3.56 µM |
| COc1cccc(Nc2nc3cc(C(=O)O)ccc3c3cnc(NC4CC4)nc23)c1 [drawing 360] | > 10 µM | 2.85 µM | 3.44 µM |
| CN(C)CCNc1ncc2c(n1)c(Nc1ccc(F)c(Cl)c1)nc1cc(C(=O)O)ccc12 [drawing 361] | > 10 µM | 2.14 µM | 1.25 µM |
| O=C(O)c1ccc2c(c1)nc(Nc1ccc(F)c(Cl)c1)c1nc(NCc3ccccn3)ncc12 [drawing 362] | > 10 µM | 8.21 µM | 2.59 µM |
| COC(CNc1ncc2c(n1)c(Nc1ccc(F)c(Cl)c1)nc1cc(C(=O)O)ccc12)OC [drawing 363] | > 10 µM | 3.41 µM | 1.12 µM |
| NC(=O)c1ccc2c(c1)nc(Nc1cccc(C(F)(F)F)c1)c1nc(NC3CC3)ncc12 [drawing 364] | > 10 µM | 3.97 µM | 1.16 µM |
| O=C(NC1CC1)c1ccc2c(c1)nc(Nc1cccc(C(F)(F)F)c1)c1nc(NC3CC3)ncc12 [drawing 365] | > 10 µM |  | 3.92 µM |
| CNC(=O)c1ccc2c(c1)nc(Nc1cccc(C(F)(F)F)c1)c1nc(NC3CC3)ncc12 [drawing 366] | > 10 µM | 11.9 µM | 3.65 µM |
| CC(C)OC(=O)Nc1ccc2c(c1)nc(Nc1cccc(C(F)(F)F)c1)c1nc(NC3CC3)ncc12 [drawing 370] | > 10 µM |  | 1.16 µM |

Continued, values first:

| IC50 (HCT-116) | IC50 (MiaPaCa) | IC50 (Jurkat) | Structure (SMILES) |
| --- | --- | --- | --- |
| > 10 µM |  |  | c1ccc(Nc2nc3cc(-c4nnn[nH]4)ccc3c3cnccc23)cc1 |
| 6.9 µM |  |  | N#Cc1ccc2c(c1)nc(Nc1ccccc1)c1ccncc12 |
| > 10 µM |  |  | Cc1noc(-c2ccc3c(c2)nc(Nc2ccccc2)c2ccncc23)n1 |
| 1.71 µM | 2.92 µM |  | COC(=O)c1ccc2c(c1)nc(Cl)c1ncncc12 |
| > 10 µM | > 10 µM |  | COC(=O)c1ccc2c(c1)nc(Nc1cccc(Cl)c1)c1ccncc12 |
| 9.56 µM | > 10 µM |  | COC(=O)c1ccc2c(c1)nc(Nc1ccccc1)c1nc(SC)ncc12 |
| 0.97 µM | 2.82 µM |  | COC(=O)c1ccc2c(c1)nc(Nc1ccccc1)c1nc(S(C)(=O)=O)ncc12 |
| 4.06 µM | > 10 µM |  | CNc1ncc2c(n1)c(Nc1ccccc1)nc1cc(C(=O)OC)ccc12 |
| 4.28 µM | 4.05 µM |  | OCc1ccc2c(c1)nc(Nc1cccc(Cl)c1)c1ccncc12 |
| 1.94 µM | 0.68 µM | 2.42 µM | O=C(O)c1ccc2c(c1)nc(Nc1ccccc1)c1nc(NC3CC3)ncc12 [drawing 318] |
| > 10 µM | 2.99 µM | 4.53 µM | CCCNc1ncc2c(n1)c(Nc1ccccc1)nc1cc(C(=O)O)ccc12 [drawing 319] |
| > 10 µM | 3.2 µM | 5.8 µM | COCCNc1ncc2c(n1)c(Nc1ccccc1)nc1cc(C(=O)O)ccc12 [drawing 320] |
| > 10 µM | 16.2 µM | 26.1 µM | O=C(O)c1ccc2c(c1)nc(Nc1ccccc1)c1nc(NCCO)ncc12 [drawing 321] |
| > 10 µM | 11.9 µM | 7.9 µM | O=C(O)c1ccc2c(c1)nc(Nc1ccccc1)c1nc(NCCCO)ncc12 [drawing 322] |
| > 10 µM | 14.4 µM | 18.9 µM | O=C(O)c1ccc2c(c1)nc(Nc1ccccc1)c1nc(NC3CCNCC3)ncc12 [drawing 323] |
| > 10 µM | 1.45 µM | 13.1 µM | CCN(CC)CCNc1ncc2c(n1)c(Nc1ccccc1)nc1cc(C(=O)O)ccc12 [drawing 324] |

| IC50 (HCT-116) | IC50 (MiaPaCa) | IC50 (Jurkat) | Structure (SMILES) |
| --- | --- | --- | --- |
| > 10 µM | 1.69 µM | 5.7 µM | O=C(O)c1ccc2c(c1)nc(Nc1ccccc1)c1nc(NCCN3CCOCC3)ncc12 [drawing 325] |
| > 10 µM | 1.36 µM | 2.18 µM | O=C(O)c1ccc2c(c1)nc(Nc1ccccc1)c1nc(NCCCN3CCOCC3)ncc12 [drawing 326] |
| 7.3 µM | 1.2 µM | 1.27 µM | C#Cc1cccc(Nc2nc3cc(C(=O)O)ccc3c3cnc(NC4CC4)nc23)c1 [drawing 327] |
| > 10 µM | 2.32 µM | 2.67 µM | C#Cc1cccc(Nc2nc3cc(C(=O)O)ccc3c3cnc(NCCC)nc23)c1 [drawing 328] |
| 8.05 µM | 1 µM | 0.94 µM | C#Cc1cccc(Nc2nc3cc(C(=O)O)ccc3c3cnc(NCCOC)nc23)c1 [drawing 329] |
| > 10 µM | 8.62 µM | 9.55 µM | C#Cc1cccc(Nc2nc3cc(C(=O)O)ccc3c3cnc(NC4CCNCC4)nc23)c1 [drawing 330] |
| > 10 µM | 2.26 µM | 3.69 µM | C#Cc1cccc(Nc2nc3cc(C(=O)O)ccc3c3cnc(NCCCN4CCOCC4)nc23)c1 [drawing 331] |
| 4.69 µM | 2.34 µM | 1.29 µM | C#Cc1cccc(Nc2nc3cc(C(=O)O)ccc3c3cnc(NC)nc23)c1 [drawing 332] |
| 3.99 µM | 9.09 µM | 3.05 µM | O=C(O)c1ccc2c(c1)nc(Nc1ccc(Cl)c(C(F)(F)F)c1)c1ccncc12 [drawing 333] |
| 7.82 µM | 0.47 µM | 1.29 µM | O=C(O)c1ccc2c(c1)nc(Nc1cccc(Cl)c1)c1nc(NC3CC3)ncc12 [drawing 334] |
| > 10 µM | 2.23 µM | 2.53 µM | O=C(O)c1ccc2c(c1)nc(Nc1cccc(C(F)(F)F)c1)c1ncncc12 [drawing 335] |
| > 10 µM | 18.1 µM | 35.9 µM | CCOc1ncc2c(n1)c(Nc1cccc(C(F)(F)F)c1)nc1cc(C(=O)O)ccc12 [drawing 336] |
| > 10 µM | 0.88 µM | 1.14 µM | Nc1ncc2c(n1)c(Nc1cccc(Cl)c1)nc1cc(C(=O)O)ccc12 [drawing 339] |
| 11.2 µM | 0.95 µM | 4.34 µM | Nc1ncc2c(n1)c(Nc1ccc(F)c(Cl)c1)nc1cc(C(=O)O)ccc12 [drawing 344] |
| 5.14 µM | 8.55 µM | 3.15 µM | O=C(O)c1ccc2c(c1)nc(Nc1cccc(C(F)(F)F)c1)c1ccncc12 [drawing 357] |
